Data: patent US6426331B1, “Inhibitors of STAT function” (Tularik Inc., priority 1998, dated 2002)

target: T1, STAT6 (Homo sapiens, UniProt P42226); assay: Inhibition of STAT6 binding (duplex formation); conditions: Table 1; inhibitors of STAT6 binding (duplex formation)
T1 sequence (P42226 1-847): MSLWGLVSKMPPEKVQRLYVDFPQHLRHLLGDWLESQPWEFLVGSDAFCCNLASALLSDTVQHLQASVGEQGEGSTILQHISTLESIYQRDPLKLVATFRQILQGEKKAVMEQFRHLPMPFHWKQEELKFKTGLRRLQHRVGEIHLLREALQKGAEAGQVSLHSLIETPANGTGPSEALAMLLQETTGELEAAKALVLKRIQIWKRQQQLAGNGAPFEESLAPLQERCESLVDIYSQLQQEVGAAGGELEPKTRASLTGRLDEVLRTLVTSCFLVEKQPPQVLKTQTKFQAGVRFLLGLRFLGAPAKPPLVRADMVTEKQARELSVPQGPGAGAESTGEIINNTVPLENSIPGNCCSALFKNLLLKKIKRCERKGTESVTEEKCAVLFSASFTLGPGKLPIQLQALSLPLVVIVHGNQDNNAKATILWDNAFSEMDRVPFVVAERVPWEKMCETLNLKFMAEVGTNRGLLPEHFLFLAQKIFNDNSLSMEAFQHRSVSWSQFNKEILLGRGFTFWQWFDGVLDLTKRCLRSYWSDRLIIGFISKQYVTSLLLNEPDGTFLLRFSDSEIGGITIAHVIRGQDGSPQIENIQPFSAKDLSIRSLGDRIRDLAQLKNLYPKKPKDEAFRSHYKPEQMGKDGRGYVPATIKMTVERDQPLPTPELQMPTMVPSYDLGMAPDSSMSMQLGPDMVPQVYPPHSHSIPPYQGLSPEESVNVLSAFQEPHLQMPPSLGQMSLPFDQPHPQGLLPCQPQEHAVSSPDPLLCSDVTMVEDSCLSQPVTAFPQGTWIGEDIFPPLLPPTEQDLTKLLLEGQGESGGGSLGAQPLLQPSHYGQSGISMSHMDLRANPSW
Method: The compounds of the present invention can be evaluated for STAT binding activity using methods such as those described in U.S. Pat. No. 6,207,391 (for STAT6 binding). Other assays for STAT binding can be found in, for example, U.S. Pat. Nos. 5,618,693, 5,639,858 and 5,756,700.
Using methods similar to those described in Examples 1 and 2, the compounds provided in Table 1 were prepared and evaluated as inhibitors of STAT6 binding (duplex formation). The assay is described in U.S. Pat. No. 6,207,391, filed Mar. 31, 1998. In each of the tables below: a + symbol indicates and IC50 of >100 μM; a ++ symbol indicates and IC50 of 50-100 μM; a +++ symbol indicates and IC50 of 1-50 μM; and a ++++ symbol indicates and IC50 of <1.0 μM.

`CC(C)(C)[C@H](NC(=O)/C=C/c1ccc(C(O)C(=O)O)cc1)C(=O)N1CCC[C@H]1C(=O)N(Cc1ccc(CN)cc1)c1ccc(C(N)=O)cc1` (stereo partly drawn) [drawing 46: H, H, 4-CONH2,4-CH2NH2] and `CC(C)(C)[C@H](NC(=O)/C=C/c1ccc(C(O)C(=O)O)cc1)C(=O)N1C[C@H](N)C[C@H]1C(=O)N(Cc1ccccc1)c1ccc(C(N)=O)cc1` (stereo partly drawn) [drawing 46: H, —NH2,4-CONH2, H] fall in the same range of IC50: 1 to 50 µM for the first, 1 to 50 µM for the second.

Compared with `CC(C)(C)[C@H](NC(=O)/C=C/c1ccc(C(O)C(=O)O)cc1)C(=O)N1CCC[C@H]1C(=O)N(Cc1ccccc1)c1ccc(C(=O)Nc2ccccc2)cc1` (stereo partly drawn) [drawing 46: H, H, 4-CONHPh, H], `CC(C)(C)[C@H](NC(=O)/C=C/c1ccc(C(O)C(=O)O)cc1)C(=O)N1C[C@H](NC(=O)c2ccccc2)C[C@H]1C(=O)N(Cc1ccccc1)c1ccc(C(N)=O)cc1` (stereo partly drawn) [drawing 46: H, —NHBz, 4-CONH2, H] is lower in IC50: > 100 µM for the first, 1 to 50 µM for the second. The second is the more potent here.

First: CC(C)(C)[C@H](NC(=O)/C=C/c1ccc(C(O)C(=O)O)cc1)C(=O)N1C[C@H](N(Cc2ccccc2)Cc2ccccc2)C[C@H]1C(=O)N(Cc1ccccc1)c1ccc(C(N)=O)cc1 (stereo partly drawn) [drawing 46: H, —N(Bn)2,4-CONH2, H]
Second: CC(C)(C)[C@H](NC(=O)/C=C/c1ccc(C(O)C(=O)O)cc1)C(=O)N1C[C@H](NC(=O)OCc2ccccc2)C[C@H]1C(=O)N(Cc1ccccc1)c1ccc(C(N)=O)cc1 (stereo partly drawn) [drawing 46: H, —NHCO2Bn, 4-CONH2, H]
The IC50 of the first is higher: > 100 µM for the first, 1 to 50 µM for the second. The second is the more potent here.

First: CN(C)[C@@H]1C[C@@H](C(=O)N(Cc2ccccc2)c2ccc(C(N)=O)cc2)N(C(=O)[C@@H](NC(=O)/C=C/c2ccc(C(O)C(=O)O)cc2)C(C)(C)C)C1 (stereo partly drawn) [drawing 46: H, —N(CH3)2,4-CONH2, H]
Second: CC(=O)N[C@@H]1C[C@@H](C(=O)N(Cc2ccccc2)c2ccc(C(N)=O)cc2)N(C(=O)[C@@H](NC(=O)/C=C/c2ccc(C(O)C(=O)O)cc2)C(C)(C)C)C1 (stereo partly drawn) [drawing 46: H, —NHAc, 4-CONH2, H]
The IC50 of the first is higher: 50 to 100 µM for the first, 1 to 50 µM for the second. The second is the more potent here.

First: Cc1ccc(S(=O)(=O)N[C@@H]2C[C@@H](C(=O)N(Cc3ccccc3)c3ccc(C(N)=O)cc3)N(C(=O)[C@@H](NC(=O)/C=C/c3ccc(C(O)C(=O)O)cc3)C(C)(C)C)C2)cc1 (stereo partly drawn) [drawing 46: H, —NH-Tosyl, 4-CONH2, H]
Second: CC(C)(C)[C@H](NC(=O)/C=C/c1ccc(C(O)C(=O)O)cc1)C(=O)N1C[C@H](NS(C)(=O)=O)C[C@H]1C(=O)N(Cc1ccccc1)c1ccc(C(N)=O)cc1 (stereo partly drawn) [drawing 46: H, —NHSO2CH3,4-CONH2, H]
The IC50 of the first is higher: > 100 µM for the first, 1 to 50 µM for the second.

`CC(C)C(=O)N[C@@H]1C[C@@H](C(=O)N(Cc2ccccc2)c2ccc(C(N)=O)cc2)N(C(=O)[C@@H](NC(=O)/C=C/c2ccc(C(O)C(=O)O)cc2)C(C)(C)C)C1` (stereo partly drawn) [drawing 46: H, —NHCOCH(CH3)2, 4-CONH2, H] and `CC(=O)N[C@H]1C[C@@H](C(=O)N(Cc2ccccc2)c2ccc(C(N)=O)cc2)N(C(=O)[C@@H](NC(=O)/C=C/c2ccc(C(O)C(=O)O)cc2)C(C)(C)C)C1` (stereo partly drawn) [drawing 46: —NHAC, H, 4-CONH2, H] fall in the same range of IC50: 1 to 50 µM for the first, 1 to 50 µM for the second.

same assay, conditions: Table 2; STAT6 binding

`CC(C)(C)[C@H](NC(=O)/C=C/c1ccc(CP(=O)(O)O)cc1)C(=O)N1CCC[C@H]1C(=O)N(c1ccccc1)c1ccc(C(N)=O)cc1` and `CC(C)(C)[C@H](NC(=O)/C=C/c1ccc(P(=O)(O)O)cc1)C(=O)N1CCC[C@H]1C(=O)N(c1ccccc1)c1ccc(C(N)=O)cc1` fall in the same range of IC50: 1 to 50 µM for the first, 1 to 50 µM for the second.

`CC(C)(C)[C@H](NC(=O)/C=C/c1cccc(CP(=O)(O)O)c1)C(=O)N1CCC[C@H]1C(=O)N(c1ccccc1)c1ccc(C(N)=O)cc1` and `CC(C)(C)[C@H](NC(=O)/C=C/c1cccc(CC(=O)O)c1)C(=O)N1CCC[C@H]1C(=O)N(c1ccccc1)c1ccc(C(N)=O)cc1` cannot be ordered by IC50: > 100 µM for the first, > 100 µM for the second.

Compared with `CC(C)(C)[C@H](NC(=O)/C=C/c1ccc(C(O)P(=O)(O)O)cc1)C(=O)N1CCC[C@H]1C(=O)N(c1ccccc1)c1ccc(C(N)=O)cc1` (stereo partly drawn), `CC(C)(C)[C@H](NC(=O)/C=C/c1ccc(C(=O)O)cc1)C(=O)N1CCC[C@H]1C(=O)N(c1ccccc1)c1ccc(C(N)=O)cc1` is higher in IC50: 1 to 50 µM for the first, > 100 µM for the second.

Going from `CC(C)(C)[C@H](NC(=O)/C=C/c1ccc(C(F)(F)P(=O)(O)O)cc1)C(=O)N1CCC[C@H]1C(=O)N(c1ccccc1)c1ccc(C(N)=O)cc1` to `CC(C)(C)[C@H](NC(=O)/C=C/c1ccc(CC(=O)O)cc1)C(=O)N1CCC[C@H]1C(=O)N(c1ccccc1)c1ccc(C(N)=O)cc1`, the IC50 rises from < 1 µM to > 100 µM. The first is the more potent here.

`COc1cc(/C=C/C(=O)N[C@H](C(=O)N2CCC[C@H]2C(=O)N(c2ccccc2)c2ccc(C(N)=O)cc2)C(C)(C)C)ccc1P(=O)(O)O` and `CC(C)(C)[C@H](NC(=O)/C=C/c1ccc(P(=O)(O)O)c(O)c1)C(=O)N1CCC[C@H]1C(=O)N(c1ccccc1)c1ccc(C(N)=O)cc1` fall in the same range of IC50: 1 to 50 µM for the first, 1 to 50 µM for the second.

`CC(C)(C)[C@H](NC(=O)/C=C/c1cccc(C(=O)O)c1)C(=O)N1CCC[C@H]1C(=O)N(c1ccccc1)c1ccc(C(N)=O)cc1` and `CC(C)(C)[C@H](NC(=O)/C=C/c1ccc(C(=O)O)cn1)C(=O)N1CCC[C@H]1C(=O)N(c1ccccc1)c1ccc(C(N)=O)cc1` cannot be ordered by IC50: > 100 µM for the first, > 100 µM for the second.

`CC(C)(C)[C@H](NC(=O)/C=C/c1ccc(C(=O)O)c(C(=O)O)c1)C(=O)N1CCC[C@H]1C(=O)N(c1ccccc1)c1ccc(C(N)=O)cc1` and `CC(C)(C)[C@H](NC(=O)/C=C/c1ccc(OC(F)(C(=O)O)C(=O)O)cc1)C(=O)N1CCC[C@H]1C(=O)N(c1ccccc1)c1ccc(C(N)=O)cc1` fall in the same range of IC50: 1 to 50 µM for the first, 1 to 50 µM for the second.

`CC(C)(C)[C@H](NC(=O)/C=C/c1ccc(OCC(=O)O)cc1)C(=O)N1CCC[C@H]1C(=O)N(c1ccccc1)c1ccc(C(N)=O)cc1` and `CC(C)(C)[C@H](NC(=O)/C=C/c1cccc(C(=O)O)n1)C(=O)N1CCC[C@H]1C(=O)N(c1ccccc1)c1ccc(C(N)=O)cc1` cannot be ordered by IC50: > 100 µM for the first, > 100 µM for the second.

same assay, conditions: Table 3; STAT6 binding

`Cc1ccc(N(C(=O)C2CCCN2C(=O)C(NC(=O)C=Cc2ccc(OP(=O)(O)O)cc2)C(C)(C)C)c2ccccc2)cc1` (stereo not drawn) [drawing 69: CH3] and `CC(C)(C)C(NC(=O)C=Cc1ccc(OP(=O)(O)O)cc1)C(=O)N1CCCC1C(=O)N(c1ccccc1)c1ccc(Cl)cc1` (stereo not drawn) [drawing 69: Cl] cannot be ordered by IC50: < 1 µM for the first, < 1 µM for the second.

First: COC(=O)c1ccc(N(C(=O)C2CCCN2C(=O)C(NC(=O)C=Cc2ccc(OP(=O)(O)O)cc2)C(C)(C)C)c2ccccc2)cc1 (stereo not drawn) [drawing 69: CO2CH3]
Second: CC(C)(C)C(NC(=O)C=Cc1ccc(OP(=O)(O)O)cc1)C(=O)N1CCCC1C(=O)N(c1ccccc1)c1ccc(C(=O)O)cc1 (stereo not drawn) [drawing 69: CO2H]
The IC50 of the first is lower: < 1 µM for the first, 1 to 50 µM for the second.

`CC(C)(C)C(NC(=O)C=Cc1ccc(OP(=O)(O)O)cc1)C(=O)N1CCCC1C(=O)N(c1ccccc1)c1ccc(C(N)=O)cc1` (stereo not drawn) [drawing 69: CONH2] and `CC(C)(C)C(NC(=O)C=Cc1ccc(OP(=O)(O)O)cc1)C(=O)N1CCCC1C(=O)N(c1ccccc1)c1ccc(I)cc1` (stereo not drawn) [drawing 69: I] cannot be ordered by IC50: < 1 µM for the first, < 1 µM for the second.

`CC(C)(C)C(NC(=O)C=Cc1ccc(OP(=O)(O)O)cc1)C(=O)N1CCCC1C(=O)N(c1ccccc1)c1ccccc1` (stereo not drawn) [drawing 69: H] and `COc1ccc(N(C(=O)C2CCCN2C(=O)C(NC(=O)C=Cc2ccc(OP(=O)(O)O)cc2)C(C)(C)C)c2ccccc2)cc1` (stereo not drawn) [drawing 69: OCH3] cannot be ordered by IC50: < 1 µM for the first, < 1 µM for the second.

same assay, conditions: Table 4; STAT6 binding

`CC(=O)NCc1cccc(N(Cc2ccc(C(N)=O)cc2)C(=O)C2CCCN2C(=O)C(NC(=O)C=Cc2ccc(OP(=O)(O)O)cc2)C(C)(C)C)c1` (stereo not drawn) [drawing 70: 3-CH2NHAc, 4-CONH2] and `CC(=O)NCc1ccc(CN(C(=O)C2CCCN2C(=O)C(NC(=O)C=Cc2ccc(OP(=O)(O)O)cc2)C(C)(C)C)c2cccc(C(N)=O)c2)cc1` (stereo not drawn) [drawing 70: 3-CONH2,4-CH2NHAc] cannot be ordered by IC50: < 1 µM for the first, < 1 µM for the second.

`CC(=O)NCc1ccc(N(Cc2ccc(C(N)=O)cc2)C(=O)C2CCCN2C(=O)C(NC(=O)C=Cc2ccc(OP(=O)(O)O)cc2)C(C)(C)C)cc1` (stereo not drawn) [drawing 70: 4-CH2NHAc, 4-CONH2] and `CC(=O)NCc1ccc(CN(C(=O)C2CCCN2C(=O)C(NC(=O)C=Cc2ccc(OP(=O)(O)O)cc2)C(C)(C)C)c2ccc(C(N)=O)cc2)cc1` (stereo not drawn) [drawing 70: 4-CONH2,4-CH2NHAc] cannot be ordered by IC50: < 1 µM for the first, < 1 µM for the second.

Compared with `CC(C)(C)C(NC(=O)C=Cc1ccc(OP(=O)(O)O)cc1)C(=O)N1CCCC1C(=O)N(Cc1ccc(I)cc1)c1ccccc1` (stereo not drawn) [drawing 70: H, 4-I], `CC(C)(C)C(NC(=O)C=Cc1ccc(OP(=O)(O)O)cc1)C(=O)N1CCCC1C(=O)N(Cc1ccc(-c2ccccc2)cc1)c1ccccc1` (stereo not drawn) [drawing 70: H, 4-phenyl] is higher in IC50: < 1 µM for the first, 1 to 50 µM for the second.
